In patent US20240239784A1, “INDOLE COMPOUNDS AND METHODS OF USE” (GENZYME CORPORATION, priority 2021, published 2024):

These compounds were tested on NBD1 (assay: Aggregation analysis of NBD1 thermal stability by differential static light scattering (DSLS)). Settings: compound at 100 μM; ΔTagg versus DMSO control.
Type: binding, Human
Method: Purified recombinant NBD1 was produced using previously described methods (A. Schmidt, J. L. Mendoza, P. J. Thomas (2011) Biochemical and Biophysical Approaches to Probe CFTR Structure (365-376) M. D. Amaral, K. Kunzelmann (eds.), Cysic Fibrosis, Methods in Molecular Biology 741, Springer Science+Business Media). The effect of test compounds on thermal stability of NBD1 was evaluated by differential static light scattering (DSLS) using the Harbinger Stargazer-384 instrument (Epiphyte Three, Toronto, Canada). Test compounds were dissolved and diluted to desired concentrations in 100% DMSO. The compounds or DMSO controls (100 nL) were stamped into wells of a […] low volume optical plate (Corning Inc., Corning, NY) using the Echo 555 acoustic liquid handler (Labcyte Inc., San Jose, CA).
NBD1 protein was diluted to 0.2 mg/ml in S200 buffer (50 mM Tris-HCl, 150 mM NaCl, 5 mM MgCl2, 2 mM ATP, 2 mM DTT, pH7.6) containing 1% glycerol. 10 uL of protein solution was aliquoted into the 384-well plate harboring the test compounds and 10 uL mineral oil was overlayed onto the protein solution, using the epMotion robotic liquid handler (Eppendorf North America, Hauppauge, NY). After placing into the Stargazer instrument, the plate was heated at 1° C. per minute to 70° C. Images were captured from 25° C. to 70° C. every 0.5° C. At the end of the experiment run, instrument software integrated image files and analyzed data automatically. A […] regression curve was generated for each well, representing the increase in light scattering over time. A temperature of aggregation (Tagg) was calculated based on the inflection point of the curve. To better compare data across experiments the average Tagg for DMSO control wells was calculated and subtracted from values for wells containing compounds to obtain a “ΔTagg” value. These ΔTagg values reflect stabilizing efficacy of the compounds.

Row | SMILES | DSLS NBD1/3D Human Stability delta-T (° C.) @ 100 (μM)
1 | OC(c1ccccc1)c1cnc(-c2cccc(Oc3ccc4[nH]ccc4n3)c2)[nH]1 (stereo not shown) [Example 52, (2-(3-((1H-Pyrrolo[3,2-b]pyridin-5-yl)oxy)phenyl)-1H-imidazol-5-yl)(phenyl)methanol] | B (4-8° C.)
2 | CNS(=O)(=O)c1c(Oc2ccc(F)c(-c3ncc(C(C)(O)c4ccccc4)[nH]3)c2)c(F)cc2[nH]ccc12 (stereo not shown) [Example 22, 6-Fluoro-5-(4-fluoro-3-(5-(1-hydroxy-1-phenylethyl)-1H-imidazol-2-yl)phenoxy)-N-methyl-1H-indole-4-sulfonamide] | B (4-8° C.)
3 | OCc1c(Oc2cccc(-c3ncn(Cc4ccccc4)n3)c2)ccc2[nH]ccc12 [Example 23, (5-(3-(1-Benzyl-1H-1,2,4-triazol-3-yl)phenoxy)-1H-indol-4-yl)methanol] | B (4-8° C.)
4 | Nc1ccc(-c2n[nH]c(Cc3ccccc3)n2)cc1Oc1ccc2[nH]ccc2c1 [Example 49, 2-((1H-Indol-5-yl)oxy)-4-(5-benzyl-1H-1,2,4-triazol-3-yl)aniline] | B (4-8° C.)
5 | Cc1c(Oc2ccc(F)c(-c3ncc(C(C)(CCC(=O)O)c4ccccc4)[nH]3)c2)c(F)cc2[nH]ccc12 (stereo not shown) [Example 13, 4-(2-(2-Fluoro-5-((6-fluoro-4-methyl-1H-indol-5-yl)oxy)phenyl)-1H-imidazol-5-yl)-4-phenylpentanoic acid] | B (4-8° C.)
6 | COCC[S+]([O-])c1c(Oc2cccc(-c3ncc(C(C)(O)c4ccccc4)[nH]3)c2)c(F)cc2[nH]ccc12 (stereo not shown) [Example 62, 1-(2-(3-((6-Fluoro-4-((2-methoxyethyl)sulfinyl)-1H-indol-5-yl)oxy)phenyl)-1H-imidazol-5-yl)-1-phenylethan-1-ol] | B (4-8° C.)
7 | CC(C)(c1ccccc1)c1cnc(-c2cc(Oc3c(F)cc4[nH]ccc4c3CCS(N)(=O)=O)ccc2F)[nH]1 [Example 75, 2-(6-Fluoro-5-(4-fluoro-3-(5-(2-phenylpropan-2-yl)-1H-imidazol-2-yl)phenoxy)-1H-indol-4-yl)ethane-1-sulfonamide] | B (4-8° C.)
8 | CC(O)(c1ccccc1)c1cnc(-c2cccc(Oc3c(F)cc4[nH]ccc4c3CO)c2)[nH]1 (stereo not shown) [Example 8, 1-(2-(3-((6-Fluoro-4-(hydroxymethyl)-1H-indol-5-yl)oxy)phenyl)-1H-imidazol-5-yl)-1-phenylethan-1-ol] | A (T ≥8° C.)
9 | c1ccc(Cc2nnc(-c3cccc(Oc4ccc5[nH]cc6c5c4CNC6)c3)[nH]2)cc1 [Example 43, 6-(3-(5-Benzyl-4H-1,2,4-triazol-3-yl)phenoxy)-1,3,4,5-tetrahydropyrrolo[4,3,2-de]isoquinoline] | C (≤4° C.)
10 | CC(O)(c1ccccc1)c1cnc(-c2cccc(Oc3c(F)cc4[nH]ccc4c3C(N)=O)c2)[nH]1 (stereo not shown) [Example 9, 6-Fluoro-5-(3-(5-(1-hydroxy-1-phenylethyl)-1H-imidazol-2-yl)phenoxy)-1H-indole-4-carboxamide] | A (T ≥8° C.)
11 | CC(O)(c1ccccc1)c1cnc(-c2cc(Oc3c(F)cc4[nH]ccc4c3CCC(=O)O)ccc2F)[nH]1 (stereo not shown) [Example 71, 3-(6-Fluoro-5-(4-fluoro-3-(5-(1-hydroxy-1-phenylethyl)-1H-imidazol-2-yl)phenoxy)-1H-indol-4-yl)propanoic acid] | A (T ≥8° C.)
12 | O=C(c1cccc(-c2nnc(Cc3ccccc3)[nH]2)c1)c1ccc2[nH]ccc2c1 [Example 34, (3-(5-Benzyl-4H-1,2,4-triazol-3-yl)phenyl)(1H-indol-5-yl)methanone] | C (≤4° C.)
13 | CC(=O)NCc1c(Oc2cccc(-c3ncc(C(O)c4ccccc4)[nH]3)c2)ccc2[nH]ccc12 (stereo not shown) [Example 18, N-((5-(3-(5-(Hydroxy(phenyl)methyl)-1H-imidazol-2-yl)phenoxy)-1H-indol-4-yl)methyl)acetamide] | A (T ≥8° C.)
14 | O=C(NCC(O)C(F)(F)F)c1c(Oc2cccc(-c3nc(C(O)c4ccccc4)c[nH]3)c2)ccc2[nH]ccc12 (stereo not shown) [Example 83, 5-(3-(4-(Hydroxy(phenyl)methyl)-1H-imidazol-2-yl)phenoxy)-N-(3,3,3-trifluoro-2 hydroxypropyl)-1H-indole-4-carboxamide] | A (T ≥8° C.)
15 | CC(O)(c1ccccc1)c1cnc(-c2cccc(Oc3c(F)cc4[nH]ccc4c3C=C3SC(=O)NC3=O)c2)[nH]1 (stereo not shown) [Example 3, 5-((6-fluoro-5-(3-(5-(1-hydroxy-1-phenylethyl)-1H-imidazol-2-yl)phenoxy)-1H-indol-4-yl)methylene)thiazolidine-2,4-dione] | A (T ≥8° C.)
16 | Nc1cnc(-c2nnc(Cc3ccccc3)[nH]2)cc1Oc1ccc2[nH]ccc2c1 [Example 44, 4-((1H-Indol-5-yl)oxy)-6-(5-benzyl-4H-1,2,4-triazol-3-yl)pyridin-3-amine] | B (4-8° C.)
17 | NCc1nc(-c2cc(Oc3c(F)cc4[nH]ccc4c3F)ccc2F)[nH]c1Cc1ccccc1 [Example 80, (5-Benzyl-2-(5-((4,6-difluoro-1H-indol-5-yl)oxy)-2-fluorophenyl)-1H-imidazol-4-yl)methanamine] | B (4-8° C.)
18 | CC(O)(c1ccccc1)c1cnc(-c2cccc(Oc3ccc4[nH]ccc4n3)c2)[nH]1 (stereo not shown) [Example 53, 1-(2-(3-((1H-Pyrrolo[3,2-b]pyridin-5-yl)oxy)phenyl)-1H-imidazol-5-yl)-1-phenylethan-1-ol] | B (4-8° C.)
19 | CS(=O)(=O)NC(=O)Cc1c(Oc2cccc(-c3nnc(Cc4ccccc4)[nH]3)c2)ccc2[nH]ccc12 [Example 56, 2-(5-(3-(5-Benzyl-4H-1,2,4-triazol-3-yl)phenoxy)-1H-indol-4-yl)-N-(methylsulfonyl)acetamide] | A (T ≥8° C.)
20 | CC(O)(c1ccccc1)c1c[nH]c(-c2cc(Oc3c(F)cc4[nH]ccc4c3CC3SC(=O)NC3=O)ccc2F)n1 (stereo not shown) [Example 1, 5-((6-Fluoro-5-(4-fluoro-3-(4-(1-hydroxy-1-phenylethyl)-1H-imidazol-2-yl)phenoxy)-1H-indol-4-yl)methyl)thiazolidine-2,4-dione] | A (T ≥8° C.)
21 | O=C(O)c1c(Oc2cccc(-c3nc(C(O)c4ccccc4)c[nH]3)c2)ccc2[nH]ccc12 (stereo not shown) [Example 81, 5-(3-(4-(Hydroxy(phenyl)methyl)-1H-imidazol-2-yl)phenoxy)-1H-indole-4-carboxylic acid] | B (4-8° C.)
22 | CC(O)(c1ccccc1)c1cnc(-c2cccc(Oc3ccc4[nH]ccc4c3S(C)(=O)=O)c2)[nH]1 (single isomer, unassigned) [Example 63B, 1-(2-(3-((4-(methylsulfonyl)-1H-indol-5-yl)oxy)phenyl)-1H-imidazol-5-yl)-1-phenylethan-1-ol] | B (4-8° C.)
23 | CC(O)(c1ccccc1)c1cnc(-c2cccc(Oc3ccc4[nH]ccc4c3S(C)(=O)=O)c2)[nH]1 (racemic) [Example 63, 1-(2-(3-((4-(methylsulfonyl)-1H-indol-5-yl)oxy)phenyl)-1H-imidazol-5-yl)-1-phenylethan-1-ol] | A (T ≥8° C.)
24 | COC(=O)c1c(Oc2cccc(-c3ncc(C(C)(O)c4ccccc4)[nH]3)c2)c(F)cc2[nH]ccc12 (stereo not shown) [Example 7, Methyl 6-fluoro-5-(3-(5-(1-hydroxy-1-phenylethyl)-1H-imidazol-2-yl)phenoxy)-1H-indole-4-carboxylate] | B (4-8° C.)
25 | CS(=O)(=O)c1c(Oc2ccc(F)c(-c3nc(C(OCC(=O)O)c4ccccc4)c[nH]3)c2)c(F)cc2[nH]ccc12 (stereo not shown) [Example 73, 2-((2-(2-Fluoro-5-((6-fluoro-4-(methylsulfonyl)-1H-indol-5-yl)oxy)phenyl)-1H-imidazol-4-yl)(phenyl)methoxy)acetic acid] | A (T ≥8° C.)
26 | Cn1nc(-c2cccc(Oc3ccc4[nH]ccc4c3C(N)=O)c2)nc1Cc1ccccc1 [Example 57, 5-(3-(5-Benzyl-1-methyl-1H-1,2,4-triazol-3-yl)phenoxy)-1H-indole-4-carboxamide] | B (4-8° C.)
27 | COCCNC(=O)c1c(Oc2cccc(-c3nc(C(O)c4ccccc4)c[nH]3)c2)ccc2[nH]ccc12 (stereo not shown) [Example 82, 5-(3-(4-(Hydroxy(phenyl)methyl)-1H-imidazol-2-yl)phenoxy)-N-(2-methoxyethyl)-1H-indole-4-carboxamide] | B (4-8° C.)
28 | O=C1NCc2c[nH]c3ccc(Oc4cccc(-c5nnc(Cc6ccccc6)[nH]5)c4)c1c23 [Example 42, 6-(3-(5-Benzyl-4H-1,2,4-triazol-3-yl)phenoxy)-3,4-dihydropyrrolo[4,3,2-de]isoquinolin-5(1H)-one] | C (≤4° C.)
